Data taken from patent US20260297094A1, “Tetracyclic Compounds as SMARCA2 and/or SMARCA4 Degraders” (Aurigene Oncology Limited, priority 2023, published 2026).
Where a name gives a salt, the structure may show the parent alone.

Experiments:
Assay type in all cases: cell-based
MV-4-11 cells = test: Anti proliferative activity in MV-4-11 cells by Cell Titer Glo (Promega) assay; settings: Homo sapiens, MV4-11, 72 h, 3 days, CellTiter-Glo
Protocol: Example-P2: Determination of Anti Proliferative Activity of Compounds in Cell Lines MV-4-11 by Cell Titer Glo® (Promega) Assay
MV-4-11 (CRL-9591™) cells were seeded in 96 well plate flat black clear bottom plates (Corning, Cat. No 3904) using complete DMEM Medium. Next day, selected compounds of the present invention were added to cells from 10 mM stocks made in DMSO (Sigma Cat no. D2650). Each concentration of compound was tested in triplicate with DMSO concentration at a final percentage not exceeding 0.3 in the cells. After the incubation of MV-4-11 cells with compound for 3 days; assay was terminated using 100 μl of CellTiter Glo® reagent (Promega, Cat. no G7572). CellTiter-Glo® Luminescent reagent determines the number of viable cells based on quantitation of ATP present which is an indicator of cell number and metabolic activity. Luminescence readings were taken in Victor-5 instrument. Percent inhibition of proliferation was calculated using formula, % inhibition=100−(luminescence value of test/luminescence value of DMSO control)*100. DMSO control (0%)=Cells in complete media with DMSO; blank=Media alone containing DMSO. EC50 was calculated using graph pad prism software.

SK-MEL-5 cells = test: Anti proliferative activity in SK-MEL-5 cells by Cell Titer Glo (Promega) assay; settings: Homo sapiens, retreatment on Day 4, terminated on day 8, CellTiter-Glo
Protocol: Example-P1: Determination of Anti Proliferative Activity of Compounds in Cell Lines SK-MEL-5 by Cell Titer Glo® (Promega) Assay
Cells were seeded into 96-well plates and the plate was incubated in 37 degrees incubator overnight. The next day, compounds were diluted 3-fold to cover 9-point concentration range in DMSO. Intermediate plate dilution was prepared in media followed with compound treatment in cells. Retreatment of cells with compound dilutions was performed on Day 4 and assay was terminated on day 8 for SK-MEL-5 cells using CellTiter-Glo and the plate was kept on orbital shaker for 20 minutes at RT. Assay was terminated on day 6 for RERF-LC-A1 without a compound retreatment. Luminescence signal was recorded on VICTOR^3 instrument. Percent inhibition of proliferation was calculated at each concentration and plotted against the compound concentration. EC50 value was calculated using GraphPad® software.

SMARCA2 = molecular target: T1, SMARCA2 (Homo sapiens, UniProt P51531); test: SMARCA2 degradation in MV-4-11 cells by Western blot; settings: MV4-11, 16 h, at 100 nM, vs DMSO, read-out: Percent degradation SMARCA2
T1 construct: endogenous in cells; host or cells: MV-4-11 (CRL-9591)
Protocol: (§1) Example-P3: Determination of SMARCA2 and SMARCA4 Degradation in MV-4-11 Cells by Western Blot
(§2) MV-4-11 (CRL-9591™) cells were plated in 6 well plates using complete Iscove's Modified Dulbecco's Medium. On the third day, compounds of present invention were added to cells from 10 mM stocks made in DMSO (Sigma Cat no. D2650). Each concentration of compound was tested with DMSO not exceeding final percentage of 0.1 in the cells. Cells were incubated with the compound for 16 hours followed by harvesting with 1×RIPA lysis buffer (Thermo Fischer, catalogue number #89900) containing protease inhibitor cocktail (Sigma catalogue number #P-8340). Equal amount of protein was loaded on SDS PAGE gel for electrophoresis. Western blot was carried out for detection of either SMARCA2 (Cell signalling technologies, catalogue number #11966) or SMARCA4 antibody (Cell signalling technologies, catalogue number #52251). Beta-Tubulin antibody (Cell signalling technologies, catalogue number #86298) was used as loading control. Percentage of SMARCA2 or SMARCA4 degradation was calculated using formula % Degradation=100−(normalized band intensity in treated sample/normalized band intensity in DMSO sample)*100. Here, “ND” refers to Not determined.

SMARCA4 = molecular target: T2, SMARCA4 (Homo sapiens, UniProt P51532); test: SMARCA4 degradation in MV-4-11 cells by Western blot; settings: MV4-11, at 100 nM, 16 hours, vs DMSO, read-out: Percent degradation SMARCA4
T2 construct: endogenous in cells; host or cells: MV-4-11 (CRL-9591)
Protocol: as §1, §2

T1 sequence (P51531 whole entry): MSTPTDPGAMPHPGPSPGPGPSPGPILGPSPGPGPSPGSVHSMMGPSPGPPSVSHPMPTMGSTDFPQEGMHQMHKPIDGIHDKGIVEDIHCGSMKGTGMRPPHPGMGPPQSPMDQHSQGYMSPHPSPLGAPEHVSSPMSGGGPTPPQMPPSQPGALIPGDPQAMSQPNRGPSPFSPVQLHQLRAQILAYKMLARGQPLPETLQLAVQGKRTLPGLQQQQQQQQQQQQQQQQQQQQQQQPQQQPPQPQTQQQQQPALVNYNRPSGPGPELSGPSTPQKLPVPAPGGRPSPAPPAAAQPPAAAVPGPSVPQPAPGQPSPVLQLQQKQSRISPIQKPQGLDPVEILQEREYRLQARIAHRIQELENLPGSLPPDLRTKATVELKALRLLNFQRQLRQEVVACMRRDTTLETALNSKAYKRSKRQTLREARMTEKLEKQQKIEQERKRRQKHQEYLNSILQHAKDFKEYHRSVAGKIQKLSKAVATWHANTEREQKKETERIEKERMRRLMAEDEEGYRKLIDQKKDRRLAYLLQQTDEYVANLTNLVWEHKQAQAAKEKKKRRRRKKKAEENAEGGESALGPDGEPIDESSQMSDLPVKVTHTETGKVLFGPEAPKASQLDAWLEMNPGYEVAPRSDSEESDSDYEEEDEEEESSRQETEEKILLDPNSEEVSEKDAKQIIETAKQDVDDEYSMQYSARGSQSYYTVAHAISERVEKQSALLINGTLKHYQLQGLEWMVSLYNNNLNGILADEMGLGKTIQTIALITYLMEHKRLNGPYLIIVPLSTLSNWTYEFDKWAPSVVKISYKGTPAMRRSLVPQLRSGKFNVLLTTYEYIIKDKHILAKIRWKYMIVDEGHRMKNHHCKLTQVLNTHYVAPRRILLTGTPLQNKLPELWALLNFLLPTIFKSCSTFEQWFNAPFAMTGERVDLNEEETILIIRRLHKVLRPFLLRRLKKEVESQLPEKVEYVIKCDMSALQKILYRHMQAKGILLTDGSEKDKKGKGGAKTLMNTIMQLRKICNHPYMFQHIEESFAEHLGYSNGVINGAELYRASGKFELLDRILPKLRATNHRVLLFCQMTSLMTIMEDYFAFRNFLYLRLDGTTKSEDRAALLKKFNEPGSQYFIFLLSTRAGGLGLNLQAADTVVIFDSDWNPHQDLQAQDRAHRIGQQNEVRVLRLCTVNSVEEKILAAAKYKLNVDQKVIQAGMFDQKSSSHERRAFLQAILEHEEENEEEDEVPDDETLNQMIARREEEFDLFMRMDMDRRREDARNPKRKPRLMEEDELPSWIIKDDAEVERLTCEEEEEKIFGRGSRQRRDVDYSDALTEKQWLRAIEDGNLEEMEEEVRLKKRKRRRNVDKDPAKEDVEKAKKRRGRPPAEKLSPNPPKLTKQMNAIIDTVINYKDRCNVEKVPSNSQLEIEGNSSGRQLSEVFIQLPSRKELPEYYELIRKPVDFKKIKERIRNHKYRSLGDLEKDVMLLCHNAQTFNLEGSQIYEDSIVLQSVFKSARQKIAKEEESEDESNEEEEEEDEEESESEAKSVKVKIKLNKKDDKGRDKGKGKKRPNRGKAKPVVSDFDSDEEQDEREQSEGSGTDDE
T2 sequence (P51532 whole entry): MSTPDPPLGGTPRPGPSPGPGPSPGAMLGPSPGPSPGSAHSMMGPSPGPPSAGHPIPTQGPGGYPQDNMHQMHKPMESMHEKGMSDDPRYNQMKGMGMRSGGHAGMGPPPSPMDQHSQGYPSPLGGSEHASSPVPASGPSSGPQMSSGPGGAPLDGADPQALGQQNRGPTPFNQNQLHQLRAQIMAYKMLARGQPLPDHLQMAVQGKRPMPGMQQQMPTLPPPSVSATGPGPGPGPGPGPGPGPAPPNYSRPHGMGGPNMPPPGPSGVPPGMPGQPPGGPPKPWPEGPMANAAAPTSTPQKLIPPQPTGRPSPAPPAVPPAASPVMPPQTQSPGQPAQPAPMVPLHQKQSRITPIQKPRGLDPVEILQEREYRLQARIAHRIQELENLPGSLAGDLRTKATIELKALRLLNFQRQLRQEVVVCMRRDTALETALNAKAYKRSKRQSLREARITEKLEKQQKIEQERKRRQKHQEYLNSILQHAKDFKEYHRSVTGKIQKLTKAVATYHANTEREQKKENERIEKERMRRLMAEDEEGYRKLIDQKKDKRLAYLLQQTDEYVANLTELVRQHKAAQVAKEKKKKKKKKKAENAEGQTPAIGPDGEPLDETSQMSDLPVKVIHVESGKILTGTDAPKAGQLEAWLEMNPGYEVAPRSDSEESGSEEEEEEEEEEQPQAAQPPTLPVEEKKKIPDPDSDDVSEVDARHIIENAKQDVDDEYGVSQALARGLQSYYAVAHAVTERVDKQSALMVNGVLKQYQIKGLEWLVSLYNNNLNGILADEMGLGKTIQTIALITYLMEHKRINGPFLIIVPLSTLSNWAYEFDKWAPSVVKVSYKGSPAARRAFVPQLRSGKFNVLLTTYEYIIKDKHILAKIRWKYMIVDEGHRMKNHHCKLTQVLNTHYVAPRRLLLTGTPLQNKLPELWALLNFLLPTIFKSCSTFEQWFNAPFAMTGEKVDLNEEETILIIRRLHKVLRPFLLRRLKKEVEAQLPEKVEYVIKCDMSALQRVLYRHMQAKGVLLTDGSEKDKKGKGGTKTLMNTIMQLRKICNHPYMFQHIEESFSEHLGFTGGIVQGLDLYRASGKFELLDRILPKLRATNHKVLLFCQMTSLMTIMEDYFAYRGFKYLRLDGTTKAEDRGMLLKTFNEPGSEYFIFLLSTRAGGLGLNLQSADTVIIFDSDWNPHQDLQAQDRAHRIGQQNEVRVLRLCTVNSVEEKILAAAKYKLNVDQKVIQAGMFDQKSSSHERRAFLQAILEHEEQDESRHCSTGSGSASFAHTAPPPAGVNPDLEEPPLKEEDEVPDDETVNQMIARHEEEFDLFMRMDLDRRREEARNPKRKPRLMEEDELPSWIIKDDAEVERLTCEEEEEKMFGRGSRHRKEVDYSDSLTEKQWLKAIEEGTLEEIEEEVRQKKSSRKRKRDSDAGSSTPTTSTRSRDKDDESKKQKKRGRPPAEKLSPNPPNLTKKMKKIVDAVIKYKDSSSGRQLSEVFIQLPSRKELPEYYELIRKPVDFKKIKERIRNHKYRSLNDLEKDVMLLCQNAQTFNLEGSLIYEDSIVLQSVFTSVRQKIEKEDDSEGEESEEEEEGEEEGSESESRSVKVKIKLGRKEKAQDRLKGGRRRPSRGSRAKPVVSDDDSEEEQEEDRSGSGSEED

SMILES | EC50 (MV-4-11 cells) [nM] | EC50 (SK-MEL-5 cells) [nM] | inhibition at 0.1 µM (SMARCA2) [%] | inhibition at 0.1 µM (SMARCA4) [%]
O=C1CCC(N2Cc3cc(C4CCN(C5CCN(c6ccc7c(c6)n(C6CCCC6)c6nc(=O)c8c(Br)cccc8n76)CC5)CC4)ccc3C2=O)C(=O)N1 (stereo not shown) [Compound 1, 3-(5-(1′-(4-Bromo-7-cyclopentyl-5-oxo-5,7-dihydrobenzo[4,5]imidazo[1,2-a]quinazolin-9-yl)-[1,4′-bipiperidin]-4-yl)-1-oxoisoindolin-2-yl)piperidine-2,6-dione] | < 10 | < 10 | 100 | 98
O=C1CCC(Oc2ccc(C3CCN(C4CCN(c5ccc6c(c5)n(C5CCCC5)c5nc(=O)c7c(Br)cccc7n65)CC4)CC3)cc2)C(=O)N1 (stereo not shown) [Compound 2, 3-(4-(1′-(4-bromo-7-cyclopentyl-5-oxo-5,7-dihydrobenzo[4,5]imidazo[1,2-a]quinazolin-9-yl)-[1,4′-bipiperidin]-4-yl)phenoxy)piperidine-2,6-dione-TFA salt] | < 10 | < 10 | 100 | 100
O=C1CCC(Nc2ccc(C3CCN(C4CCN(c5ccc6c(c5)n(C5CCCC5)c5nc(=O)c7c(Br)cccc7n65)CC4)CC3)c(F)c2)C(=O)N1 (stereo not shown) [Compound 3, 3-((4-(1′-(4-bromo-7-cyclopentyl-5-oxo-5,7-dihydrobenzo[4,5]imidazo[1,2-a]quinazolin-9-yl)-[1,4′-bipiperidin]-4-yl)-3-fluorophenyl)amino)piperidine-2,6-dione] | < 10 | < 10 | 100 | 99
O=C1CCC(c2ccc(C3CCN(C4CCN(c5ccc6c(c5)n(C5CCCC5)c5nc(=O)c7c(Br)cccc7n65)CC4)CC3)cc2)C(=O)N1 (stereo not shown) [Compound 4, 3-(4-(1′-(4-bromo-7-cyclopentyl-5-oxo-5,7-dihydrobenzo[4,5]imidazo[1,2-a]quinazolin-9-yl)-[1,4′-bipiperidin]-4-yl)phenyl)piperidine-2,6-dione] | < 10 | < 10 | 90 | 97
O=C1CCC(c2ccc(N3CCN(C4CCN(c5ccc6c(c5)n(C5CCCC5)c5nc(=O)c7c(Br)cccc7n65)CC4)CC3)cc2)C(=O)N1 (stereo not shown) [Compound 6, 3-(4-(4-(1-(4-bromo-7-cyclopentyl-5-oxo-5,7-dihydrobenzo[4,5]imidazo[1,2-a]quinazolin-9-yl)piperidin-4-yl)piperazin-1-yl)phenyl)piperidine-2,6-dione] | > 100 | < 10 | 96 | 90
O=C1CCC(N2Cc3cc(C4CCN(C5CCN(C6CCN(c7ccc8c(c7)n(C7CCCC7)c7nc(=O)c9c(Br)cccc9n87)CC6)CC5)CC4)ccc3C2=O)C(=O)N1 (stereo not shown) [Compound 7, 3-(5-(1″-(4-bromo-7-cyclopentyl-5-oxo-5,7-dihydrobenzo[4,5]imidazo[1,2-a]quinazolin-9-yl)-[1,4′:1′,4″-terpiperidin]-4-yl)-1-oxoisoindolin-2-yl)piperidine-2,6-dione] | < 10 | < 10 | 99 | 99
Nc1cccc2c1c(=O)nc1n(C3CCCC3)c3cc(N4CCC(N5CCC(c6ccc7c(c6)CN(C6CCC(=O)NC6=O)C7=O)CC5)CC4)ccc3n21 (stereo not shown) [Compound 8, 3-(5-(1′-(4-amino-7-cyclopentyl-5-oxo-5,7-dihydrobenzo[4,5]imidazo[1,2-a]quinazolin-9-yl)-[1,4′-bipiperidin]-4-yl)-1-oxoisoindolin-2-yl)piperidine-2,6-dione-HCl salt] | < 10 | < 10 | 92 | 99
O=C1CCC(N2Cc3cc(C4CCN(C5CCN(c6ccc7c(c6)n(C6CCCC6)c6nc(=O)c8c(Cl)cccc8n76)CC5)CC4)ccc3C2=O)C(=O)N1 (stereo not shown) [Compound 9, 3-(5-(1′-(4-chloro-7-cyclopentyl-5-oxo-5,7-dihydrobenzo[4,5]imidazo[1,2-a]quinazolin-9-yl)-[1,4′-bipiperidin]-4-yl)-1-oxoisoindolin-2-yl)piperidine-2,6-dione] | < 10 | < 10 | 90 | 99
Cn1c2cc(N3CCC(N4CCN(c5ccc(NC6CCC(=O)NC6=O)cc5F)CC4)CC3)ccc2n2c3cccc(N)c3c(=O)nc12 (stereo not shown) [Compound 40, 3-((4-(4-(1-(4-amino-7-methyl-5-oxo-5,7-dihydrobenzo[4,5]imidazo[1,2-a]quinazolin-9-yl)piperidin-4-yl)piperazin-1-yl)-3-fluorophenyl)amino)piperidine-2,6-dione] | > 100 | > 100 | 48 | 
CC(C)n1c2cc(N3CCC(N4CCN(c5ccc(C6CCC(=O)NC6=O)cc5)CC4)CC3)ccc2n2c3cccc(N)c3c(=O)nc12 (stereo not shown) [Compound 44, 3-(4-(4-(1-(4-amino-7-isopropyl-5-oxo-5,7-dihydrobenzo[4,5]imidazo[1,2-a]quinazolin-9-yl)piperidin-4-yl)piperazin-1-yl)phenyl)piperidine-2,6-dione] | > 100 | > 100 | 16 | 
Cn1c2cc(N3CCN(C4CN(c5ccc6c(c5)C(=O)N(C5CCC(=O)NC5=O)C6=O)C4)CC3)ccc2n2c3cccc(N)c3c(=O)nc12 (stereo not shown) [Compound 45, 5-(3-(4-(4-amino-7-methyl-5-oxo-5,7-dihydrobenzo[4,5]imidazo[1,2-a]quinazolin-9-yl)piperazin-1-yl)azetidin-1-yl)-2-(2,6-dioxopiperidin-3-yl)isoindoline-1,3-dione] | > 100 | > 100 | 21 | 
CC(C)n1c2cc(N3CCC(N4CCN(c5ccc(NC6CCC(=O)NC6=O)cc5F)CC4)CC3)ccc2n2c3cccc(Cl)c3c(=O)nc12 (stereo not shown) [Compound 47, 3-((4-(4-(1-(4-chloro-7-isopropyl-5-oxo-5,7-dihydrobenzo[4,5]imidazo[1,2-a]quinazolin-9-yl)piperidin-4-yl)piperazin-1-yl)-3-fluorophenyl)amino)piperidine-2,6-dione] | > 100 | < 10 |  | 
CC(C)n1c2cc(N3CCC(N4CCN(c5ccc6c(c5)CN(C5CCC(=O)NC5=O)C6=O)CC4)CC3)ccc2n2c3cccc(Cl)c3c(=O)nc12 (stereo not shown) [Compound 48, 3-(5-(4-(1-(4-chloro-7-isopropyl-5-oxo-5,7-dihydrobenzo[4,5]imidazo[1,2-a]quinazolin-9-yl)piperidin-4-yl)piperazin-1-yl)-1-oxoisoindolin-2-yl)piperidine-2,6-dione] | > 100 | < 10 |  | 
Cn1c2cc(-c3ccc(N4CCN(c5ccc(NC6CCC(=O)NC6=O)cc5F)CC4)cc3)ccc2n2c3cccc(N)c3c(=O)nc12 (stereo not shown) [Compound 49, 3-((4-(4-(4-(4-amino-7-methyl-5-oxo-5,7-dihydrobenzo[4,5]imidazo[1,2-a]quinazolin-9-yl)phenyl)piperazin-1-yl)-3-fluorophenyl)amino)piperidine-2,6-dione] | > 100 | > 100 |  | 
CC(C)n1c2cc(-c3ccc(N4CCN(c5ccc(NC6CCC(=O)NC6=O)cc5F)CC4)cc3)ccc2n2c3cccc(Cl)c3c(=O)nc12 (stereo not shown) [Compound 50, 3-((4-(4-(4-(4-chloro-7-isopropyl-5-oxo-5,7-dihydrobenzo[4,5]imidazo[1,2-a]quinazolin-9-yl)phenyl)piperazin-1-yl)-3-fluorophenyl)amino)piperidine-2,6-dione.TFA] | > 100 | > 100 |  | 
